Assay [1] has as its target T1, Interstitial collagenase (Homo sapiens, UniProt P03956).
T1 sequence (P03956 whole entry): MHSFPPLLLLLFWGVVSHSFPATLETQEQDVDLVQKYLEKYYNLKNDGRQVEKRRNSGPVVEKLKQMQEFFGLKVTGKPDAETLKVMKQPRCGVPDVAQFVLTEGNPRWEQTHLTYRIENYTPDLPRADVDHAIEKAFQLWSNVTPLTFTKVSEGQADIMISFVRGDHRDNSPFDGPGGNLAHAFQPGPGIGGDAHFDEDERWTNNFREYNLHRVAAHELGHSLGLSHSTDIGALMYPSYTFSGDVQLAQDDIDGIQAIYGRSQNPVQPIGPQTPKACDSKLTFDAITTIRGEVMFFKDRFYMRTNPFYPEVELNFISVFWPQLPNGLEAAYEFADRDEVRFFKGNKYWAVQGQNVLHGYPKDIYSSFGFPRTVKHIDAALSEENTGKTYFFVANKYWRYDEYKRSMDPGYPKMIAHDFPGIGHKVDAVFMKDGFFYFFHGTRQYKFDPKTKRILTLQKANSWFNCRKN
Nature of the assay: Binding affinity was evaluated against matrix metalloprotease-1.

For assay [2], the target named is Stromelysin-1 (Homo sapiens, UniProt P08254). Nature of the assay: Binding affinity against human matrix metalloprotease-3.
The target of assay [3] is Matrix metalloproteinase-9 (Homo sapiens, UniProt P14780). Nature of the assay: Binding affinity was evaluated against matrix metalloprotease-9.

Where only a bound is given, the exact number is not on record here.

Sequence of Stromelysin-1 (P08254 whole entry): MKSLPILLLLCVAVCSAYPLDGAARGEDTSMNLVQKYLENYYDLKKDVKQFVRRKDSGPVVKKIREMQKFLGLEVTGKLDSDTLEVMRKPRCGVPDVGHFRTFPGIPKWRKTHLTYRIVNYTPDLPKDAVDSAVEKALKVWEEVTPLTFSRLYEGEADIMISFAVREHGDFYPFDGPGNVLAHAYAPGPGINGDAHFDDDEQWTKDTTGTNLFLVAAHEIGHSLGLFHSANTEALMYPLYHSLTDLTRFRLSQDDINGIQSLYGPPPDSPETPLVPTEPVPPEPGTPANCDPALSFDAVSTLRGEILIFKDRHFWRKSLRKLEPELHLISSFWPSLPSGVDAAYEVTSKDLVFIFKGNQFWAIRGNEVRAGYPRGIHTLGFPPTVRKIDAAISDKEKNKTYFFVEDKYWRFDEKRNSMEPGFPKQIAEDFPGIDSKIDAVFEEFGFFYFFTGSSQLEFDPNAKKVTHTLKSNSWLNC
Sequence of Matrix metalloproteinase-9 (P14780 whole entry): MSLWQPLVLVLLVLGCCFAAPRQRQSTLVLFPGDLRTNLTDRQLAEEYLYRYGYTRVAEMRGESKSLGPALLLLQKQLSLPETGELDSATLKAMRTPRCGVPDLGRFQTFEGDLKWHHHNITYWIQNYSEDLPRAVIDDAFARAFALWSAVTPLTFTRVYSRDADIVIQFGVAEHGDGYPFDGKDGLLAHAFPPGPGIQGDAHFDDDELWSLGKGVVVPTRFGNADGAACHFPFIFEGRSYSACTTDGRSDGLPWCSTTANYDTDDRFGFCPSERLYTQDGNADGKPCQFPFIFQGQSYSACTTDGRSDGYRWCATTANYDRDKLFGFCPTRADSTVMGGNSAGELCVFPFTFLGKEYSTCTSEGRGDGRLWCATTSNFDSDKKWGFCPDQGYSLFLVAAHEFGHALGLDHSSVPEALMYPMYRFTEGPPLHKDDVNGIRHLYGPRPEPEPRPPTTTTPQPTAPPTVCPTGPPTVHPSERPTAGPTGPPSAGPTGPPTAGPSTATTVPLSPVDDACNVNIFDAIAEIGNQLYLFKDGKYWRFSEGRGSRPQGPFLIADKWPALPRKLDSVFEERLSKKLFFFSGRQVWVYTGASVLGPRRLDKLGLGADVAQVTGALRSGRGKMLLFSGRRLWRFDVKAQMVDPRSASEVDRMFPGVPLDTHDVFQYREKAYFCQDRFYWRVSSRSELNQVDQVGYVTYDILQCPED

In the case of `CNC(=O)[C@H](CCCNC(=O)N1CCOCC1)NC(=O)[C@H](CCCc1ccccc1)[C@@](C)(O)C(=O)NO`, the Ki in assay [1] turned out to be 53 nM; in assay [2], 70 nM; in assay [3] it was 4 nM.
Consider `CNC(=O)[C@H](Cc1ccc(OC)cc1)NC(=O)[C@H](CC(C)C)[C@@](C)(O)C(=O)NO`, for which the inhibition constant Ki in assay [1] was 0.6 nM; in assay [2], 13 nM; in assay [3] it was under 1 nM.
Turning to `CNC(=O)[C@@H](NC(=O)[C@H](CCCc1ccccc1)[C@@](C)(O)C(=O)NO)C(C)(C)C`, the Ki in assay [1] is 13 nM; in assay [2], 13 nM; in assay [3], under 1 nM.
Take `CNC(=O)[C@H](Cc1ccc(OC)cc1)NC(=O)[C@H](CCc1ccccc1)[C@@](C)(O)C(=O)NO`: the values for the Ki in assay [1], in assay [2] and in assay [3] were 33 nM, 25 nM and 2 nM, respectively.
Turning to `C[C@](O)(C(=O)NO)[C@@H](CCCc1ccccc1)C(=O)N[C@@H](CCCCN)C(=O)NCCc1ccccc1`, the Ki in assay [1] was 25 nM; in assay [2], 28 nM; in assay [3], 1 nM.
Turning to `CNC(=O)[C@H](Cc1ccc(OC)cc1)NC(=O)[C@H](CCCc1ccccc1)[C@@](C)(O)C(=O)NO`, the inhibitory constant (Ki) was 2 nM in assay [1], 3 nM in assay [2] and under 1 nM in assay [3].
`C[C@@H](NC(=O)[C@H](CCCCN)NC(=O)[C@H](CCCc1ccccc1)[C@@](C)(O)C(=O)NO)c1ccccc1`: the values for the Ki in assay [1], in assay [2] and in assay [3] were 282 nM, 168 nM and 149 nM, respectively.
As for `CNC(=O)[C@H](Cc1ccc(OC)cc1)NC(=O)[C@H](Cc1ccccc1)[C@@](C)(O)C(=O)NO`, the figures for the Ki in assay [1], in assay [2] and in assay [3] were 85 nM, 526 nM and 5 nM, respectively.
As to `C[C@](O)(C(=O)NO)[C@@H](CCCc1ccccc1)C(=O)N[C@@H](Cc1ccccc1)C(=O)O`, the figures for the Ki in assay [1], in assay [2] and in assay [3] were 167 nM, 25 nM and over 213 nM, respectively.
With `CNC(=O)[C@H](CCCN)NC(=O)[C@H](CCCc1ccccc1)[C@@](C)(O)C(=O)NO`, the Ki in assay [1] stood at 18 nM; in assay [2], 103 nM; in assay [3], 5 nM.
Regarding `CNC(=O)[C@H](CCCNC(=O)OC(C)(C)C)NC(=O)[C@H](CCCc1ccccc1)[C@@](C)(O)C(=O)NO`, the Ki in assay [1] came to 16 nM; in assay [2] it was 13 nM; in assay [3] it was 2 nM.
Turning to `CNC(=O)[C@H](CCCCN)NC(=O)[C@H](CCCc1ccccc1)[C@@](C)(O)C(=O)NO`, the figures for the Ki in assay [1], in assay [2] and in assay [3] were 15 nM, 32 nM and under 1 nM, respectively.
For `CNC(=O)[C@H](CCCNS(=O)(=O)N(C)C)NC(=O)[C@H](CCCc1ccccc1)[C@@](C)(O)C(=O)NO`, the Ki in assay [1] worked out at 22 nM; in assay [2], 24 nM; in assay [3], 2 nM.
Take `CC(C)(C)OC(=O)[C@H](Cc1ccccc1)NC(=O)[C@H](CCCc1ccccc1)[C@@](C)(O)C(=O)NO`: the Ki is 198 nM in assay [1], 100 nM in assay [2] and 34 nM in assay [3].
Take `CNC(=O)[C@H](Cc1ccc(OC)cc1)NC(=O)[C@H](CC(C)C)[C@](C)(O)C(=O)NO`: in assay [2], the inhibitory constant (Ki) is over 10000 nM.
As to `CNC(=O)[C@H](Cc1ccc(OC)cc1)NC(=O)[C@H](CCc1ccccc1)[C@](C)(O)C(=O)NO`, the Ki in assay [2] is over 10000 nM.
Turning to `CNC(=O)[C@H](Cc1ccc(OC)cc1)NC(=O)[C@H](Cc1ccccc1)[C@](C)(O)C(=O)NO`, the Ki in assay [2] was over 10000 nM.

In general, Ki refers to the equilibrium dissociation constant of an inhibitor or competing ligand from its target.

Values taken from ChEMBL document CHEMBL1130781, “Structure-based design and synthesis of a series of hydroxamic acids with a quaternary-hydroxy group in P1 as inhibitors of matrix metalloproteinases” (Bioorg Med Chem Lett, 1998).
